Test results taken from paper PMC6934184, “Selective DNA-PKcs inhibition extends the therapeutic index of localized radiotherapy and chemotherapy” (The Journal of Clinical Investigation, 2019).

Target: T1, FGFR1 (Homo sapiens, UniProt P11362)
T1 construct: purchased Thermo Fisher Scientific (Life Technologies) SelectScreen
Experiment: SelectScreen Z'LYTE
Format: biochemical
Method in brief: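 NU5455 was profiled across the SelectScreen Broad panel of kinase activity and binding assays. Z'LYTE reactions such as CSF1R ran at apparent Km ATP, while the Adapta CAMK1 assay used ATP listed as 10. Values are given as percent.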

T1 sequence (P11362 22-822): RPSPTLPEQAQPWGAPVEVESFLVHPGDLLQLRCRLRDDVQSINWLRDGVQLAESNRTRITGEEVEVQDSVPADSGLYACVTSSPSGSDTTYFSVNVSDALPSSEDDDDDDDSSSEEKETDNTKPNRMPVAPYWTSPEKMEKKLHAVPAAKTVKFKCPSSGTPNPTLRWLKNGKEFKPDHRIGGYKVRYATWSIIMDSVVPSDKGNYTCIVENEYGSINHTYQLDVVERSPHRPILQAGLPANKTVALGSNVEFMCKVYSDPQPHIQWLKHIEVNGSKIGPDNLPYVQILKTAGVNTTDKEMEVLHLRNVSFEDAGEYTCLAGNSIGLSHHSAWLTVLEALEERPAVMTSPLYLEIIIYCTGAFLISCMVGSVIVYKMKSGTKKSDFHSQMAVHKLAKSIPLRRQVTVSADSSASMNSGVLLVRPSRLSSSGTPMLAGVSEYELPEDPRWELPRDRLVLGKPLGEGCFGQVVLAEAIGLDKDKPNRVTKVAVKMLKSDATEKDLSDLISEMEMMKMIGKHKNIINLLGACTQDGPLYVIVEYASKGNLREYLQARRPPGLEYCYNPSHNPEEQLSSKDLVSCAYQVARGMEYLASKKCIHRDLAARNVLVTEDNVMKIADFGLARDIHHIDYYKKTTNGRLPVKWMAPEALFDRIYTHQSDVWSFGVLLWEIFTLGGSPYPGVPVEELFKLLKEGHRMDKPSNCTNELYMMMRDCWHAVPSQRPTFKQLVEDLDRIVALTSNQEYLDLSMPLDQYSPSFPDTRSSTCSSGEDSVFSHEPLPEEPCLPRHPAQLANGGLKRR

## CN(C(=O)CN1CCOCC1)c1ccc2sc3c(-c4cccc5c(=O)cc(N6CC7CCC(C6)O7)oc45)cccc3c2c1 [NU5455]
  inhibition at 1 µM: 4.7%
